From patent publication US20250186521A1 (priority 2018, published 2025)

Legend:
Format in all cases: in vivo, Broiler chickens
[1] = test system: mixed E. acervulina, E. maxima, and E. tenella coccidial inoculum; assay: Anticoccidial efficacy versus salinomycin (Example 5): performance, average lesion score, total OPG; conditions: 60 g/t
Excerpt: (§1) • 1. No Additive, no Cocci. • 2. No Additive, Cocci. • 3. Salinomycin 60 g/t, Cocci. • 4. Product Z 0.551%, Cocci.
(§2) Cages were blocked by location in the battery with block size equal to the groups (8 cages per block). The study began when the birds were placed (day of hatch, i.e., DOT 0) at which time they were allocated to the experimental cages. Only healthy birds were selected (10 birds/cage).
(§3) Upon arrival, chicks were raised in Petersime battery cages. At placement the birds were fed the various feeds. The Petersime batteries were in an insulated building having a concrete floor and a metal overhead structure. The floor space per animal was 0.51 sq. ft. per bird. The feeder space per bird was 10 birds per 24×3.5-inch feeder. Uniform temperature and illumination was provided.
(§4) An unmedicated commercial chicken feed composition compounded with feedstuffs commonly used in the U.S. poultry industry, such as cereals and proteins, was obtained. The diet was an all-vegetable feed with no antibiotics, organic acids, NSP enzymes, or direct fed microbial. This feed in mash form was fed ad libitum from the date of chick arrival until Day 28 of the study. Experimental feeds augmented with the algal biomass were prepared from this commercial poultry feed. The feeds were mixed to assure a uniform distribution of algal biomass into the mash feed.
Day of hatch male broiler chicks of strain Cobb X Cobb were obtained from Cobb-Vantress, Cleveland, GA. Sets of ten chicks were randomly selected, group weighed and placed into cages. No birds were replaced during the study.
(§5) All birds were weighed by cage on DOT 0, 14, 20 and 28. Feed was weighed in on DOT 0 and remaining feed was weighed on DOT 14, 20, and 28.
Coccidial oocysts inoculation procedures were described. On Day 14 of the study all birds except Tl orally received a mixed E. acervulina, E. maxima, and E. tenella coccidial inoculum diluted to a 1 ml volume (p.o.). Inoculum level attempted to produce a moderate challenge.
(§6) On DOT 20, five birds from each cage were selected, sacrificed, weighed, and examined for the degree of presence of coccidia lesions. If less than five birds were present at time of scoring, all remaining birds within the cage were scored. The Johnson and Reid, 1970 method of coccidiosis lesion scoring was used to score the infected region(s) of the intestine. The scoring was based on a 0 to 4 score, with 0 being normal and 4 being the most severe.
(§7) Day 19 (Day 5 post challenge) drop pans from all cages were cleaned. Day 20 (Day 6 pc) mixed feces were collected from each cage. Each sample was examined for the number of oocysts per gram fecal material by fecal floatation.
(§8) Means for cage weight gain, feed consumption, feed conversion rate, lesion scores, opgs, and mortality were calculated.

[2] = test system: Eimeria acervulina; assay: Anticoccidial efficacy (Example 5): lesion score and OPG, Eimeria acervulina; conditions: 60 g/t, infected
Excerpt: as §1, §2
as §4, with “mash feed. […]” for “mash feed.”
(§9) On DOT 20, five birds from each cage were selected, sacrificed, weighed, and examined for the degree of presence of coccidia lesions. If less than five birds were present at time of scoring, all remaining birds within the cage were scored. […]
as §8

[3] = test system: Eimeria maxima; assay: Anticoccidial efficacy (Example 5): lesion score and OPG, Eimeria maxima; conditions: 60 g/t, infected
Excerpt: as §1, §2
as §4, with “mash feed. […]” for “mash feed.”
as §9, §8

[4] = test system: Eimeria tenella; assay: Anticoccidial efficacy (Example 5): lesion score and OPG, Eimeria tenella; conditions: 60 g/t, infected
Excerpt: as §1, §2
as §4, with “mash feed. […]” for “mash feed.”
as §9, §8

[5] = test system: mixed E. acervulina, E. maxima, and E. tenella coccidial inoculum; assay: Cocci Test (Example 6): performance, average lesion score, total OPG; conditions: 1.0 lb/t
Excerpt: (§10) • 1. No Additive, no Cocci • 2. No Additive, Cocci • 3. Salinomycin 60 g/t, Cocci • 4.
(§11) Each group was replicated 10 times. Cages were blocked by location in the battery with block size equal to groups (7 cages per block). The study began when the birds were placed (day of hatch, i.e., DOT 0) at which time they were allocated to the experimental cages. Only healthy birds were selected (10 birds/cage).
as §3, with “ft” for “ft.”
as §4
Day of hatch male broiler chicks of strain Cobb 500 were obtained from Cobb-Vantress, Cleveland, GA. Sets of ten chicks were randomly selected, group weighed and placed into cages. Number and disposition of all birds not used for allocation were documented. No birds were replaced during the study.
as §5
On Day 14 of the study all birds except Tl orally received a mixed E. acervulina, E. maxima, and E. tenella coccidial inoculum diluted to a 1 ml volume (p.o.). Inoculum level attempted to produce a moderate challenge.
as §6, §7, §8

[6] = test system: Eimeria acervulina; assay: Cocci Test (Example 6): lesion score and OPG, Eimeria acervulina; conditions: 1.0 lb/t, infected
Excerpt: as §10, §11
as §4, with “mash feed. […]” for “mash feed.”
as §9, §8

[7] = test system: Eimeria maxima; assay: Cocci Test (Example 6): lesion score and OPG, Eimeria maxima; conditions: 1.0 lb/t, infected
Excerpt: as §10, §11
as §4, with “mash feed. […]” for “mash feed.”
as §9, §8

[8] = test system: Eimeria tenella; assay: Cocci Test (Example 6): lesion score and OPG, Eimeria tenella; conditions: 1.0 lb/t, infected
Excerpt: as §10, §11
as §4, with “mash feed. […]” for “mash feed.”
as §9, §8

CC[C@@H](C(=O)[C@@H](C)[C@@H](O)[C@H](C)[C@@H]1O[C@@H]([C@@H](CC)C(=O)O)CC[C@@H]1C)[C@H]1O[C@]2(C=C[C@@H](O)[C@]3(CC[C@@](C)([C@H]4CC[C@](O)(CC)[C@H](C)O4)O3)O2)[C@H](C)C[C@@H]1C [Salinomycin]
FCR Day 0-20 ([1]; infected): 1.597bc | FCR Day 0-28 ([1]; infected): 1.625bc | FCR Day 14-20 ([1]; infected): 1.744b | FCR Day 14-28 ([1]; infected): 1.766c | Feed Intake Day 0-20 ([1]; infected): 5.433a | Feed Intake Day 0-28 ([1]; infected): 5.918a | Feed Intake Day 14-20 ([1]; infected): 3.049a | Feed Intake Day 14-28 ([1]; infected): 3.534a | Wt. Gain Day 0-20 ([1]; infected): 0.360b | Wt. Gain Day 0-28 ([1]; infected): 0.376b | Wt. Gain Day 14-20 ([1]; infected): 0.185b | Wt. Gain Day 14-28 ([1]; infected): 0.202b | FCR Day 14 ([1]; infected on Day 14): 1.156a | Feed Intake Day 14 ([1]; infected on Day 14): 2.384a | Wt. Gain Day 14 ([1]; infected on Day 14): 0.218a | Lesion Scores Avg. ([1]; infected, DOT 20, 0 to 4 score): 1.3c | OPG Total Avg. ([1]; infected, Day 20 feces): 9722b OPG | Lesion Scores Eimeria acervulina ([2]; DOT 20, 0 to 4 score): 2.1c | OPG Eimeria acervulina ([2]; Day 20 feces): 4511c OPG | Lesion Scores Eimeria maxima ([3]; DOT 20, 0 to 4 score): 0.9c | OPG Eimeria maxima ([3]; Day 20 feces): 484b OPG | Lesion Scores Eimeria tenella ([4]; DOT 20, 0 to 4 score): 0.7c | OPG Eimeria tenella ([4]; Day 20 feces): 4727c OPG | FCR Day 0-20 ([5]; infected): 1.876ab | FCR Day 0-28 ([5]; infected): 1.832a | FCR Day 14-20 ([5]; infected): 1.839b | FCR Day 14-28 ([5]; infected): 1.789a | Feed Intake Day 0-20 ([5]; infected): 7.064b | Feed Intake Day 0-28 ([5]; infected): 9.852bc | Feed Intake Day 14-20 ([5]; infected): 3.628b | Feed Intake Day 14-28 ([5]; infected): 6.416b | Wt. Gain Day 0-20 ([5]; infected): 0.382b | Wt. Gain Day 0-28 ([5]; infected): 0.718bc | Wt. Gain Day 14-20 ([5]; infected): 0.201b | Wt. Gain Day 14-28 ([5]; infected): 0.537b | FCR Day 14 ([5]; infected on Day 14): 1.491a | Feed Intake Day 14 ([5]; infected on Day 14): 3.436ab | Wt. Gain Day 14 ([5]; infected on Day 14): 0.232b | Lesion Scores Avg. ([5]; infected, DOT 20, 0 to 4 score): 1.5c | OPG Total Avg. ([5]; infected, Day 20 feces): 35.178c OPG | Lesion Scores Eimeria acervulina ([6]; DOT 20, 0 to 4 score): 1.7c | OPG Eimeria acervulina ([6]; Day 20 feces): 30802c OPG | Lesion Scores Eimeria maxima ([7]; DOT 20, 0 to 4 score): 1.7b | OPG Eimeria maxima ([7]; Day 20 feces): 2608a OPG | Lesion Scores Eimeria tenella ([8]; DOT 20, 0 to 4 score): 1.1b | OPG Eimeria tenella ([8]; Day 20 feces): 1768b OPG
